Laboratory results from ChEMBL document CHEMBL5390242, “Design, Synthesis, and Antitumor Efficacy of Substituted 2-Amino[1,2,4]triazolopyrimidines and Related Heterocycles as Dual Inhibitors for Microtubule Polymerization and Janus Kinase 2” (J Med Chem, 2023).
Active and inactive are the calls of the source. No cut-off for these calls is given here.

Columns and labels:
BXPC-3 = experiment: Antiproliferative activity against human BXPC-3 cells assessed as cell growth inhibition incubated for 48 hrs by MTT assay; assay type: functional, cell-based; conditions: BXPC-3, 48 h
KP-4 = experiment: Antiproliferative activity against human KP-4 cells assessed as cell growth inhibition incubated for 48 hrs by MTT assay; assay type: functional, cell-based; conditions: KP-4, 48 h
MCF7 = experiment: cells; conditions: Homo sapiens, MCF7, 48 h
Description: Antiproliferative activity against human MCF7 cells assessed as cell growth inhibition incubated for 48 hrs by MTT assay

A549 [1] = experiment: Antiproliferative activity against human A549 cells assessed as cell growth inhibition incubated for 48 hrs by MTT assay; assay type: functional, cell-based; conditions: A549, 48 h
HeLa = experiment: Antiproliferative activity against human HeLa cells assessed as cell growth inhibition incubated for 48 hrs by MTT assay; assay type: functional, cell-based
[2] = biological target: T1, Tyrosine-protein kinase JAK2 (Homo sapiens, UniProt O60674); experiment: Inhibition of JAK2 (unknown origin) using Poly-(Glu,Tyr 4:1) peptide as substrate at 1 uM in presence of ATP by ADP-Glo reagent based assay relative to control
[3] = biological target: T1, Tyrosine-protein kinase JAK2; experiment: Inhibition of JAK2 (unknown origin) using Poly-(Glu,Tyr 4:1) peptide as substrate in presence of ATP by ADP-Glo reagent based assay
Tubulin = Tubulin (Sus scrofa, UniProt P02554+P02550); experiment: Inhibition of porcine brain tubulin polymerization measured for 30 mins in presence of GTP by microplate reader assay; assay type: tissue-based
[4] = MRT (0 to t) in CD-1 mouse at 13 mg/kg,ip measured upto 24 hrs by HPLC-MS/MS analysis; assay type: ADME, organism-based; conditions: in vivo
A549 [5] = experiment: Antitumor activity against human A549 cells xenografted in Balb/c mouse assessed as increase in tumor necrotic cells at 50 mg/kg,ip administration measured after 31 days by Hematoxylin-eosin staining based microscopy; assay type: functional, organism-based; conditions: time 31.0 day
[6] = AUC (0 to infinity) in CD-1 mouse at 13 mg/kg,ip measured upto 24 hrs by HPLC-MS/MS analysis; assay type: ADME, organism-based; parameters: time < 24 hrs, dose 13 mg/kg, route ip; conditions: in vivo
A549 [7] = experiment: Antitumor activity against human A549 cells xenografted in Balb/c mouse assessed as tumor size at 50 mg/kg,ip administration measured after 31 days; assay type: functional; conditions: time 31 day
[8] = Half life in CD-1 mouse at 13 mg/kg,ip measured upto 24 hrs by HPLC-MS/MS analysis; assay type: ADME, organism-based; conditions: in vivo
[9] = Tmax in CD-1 mouse at 13 mg/kg,ip measured upto 24 hrs by HPLC-MS/MS analysis; assay type: ADME, organism-based; conditions: in vivo
[10] = Cmax in CD-1 mouse at 13 mg/kg,ip measured upto 24 hrs by HPLC-MS/MS analysis; assay type: ADME, organism-based; parameters: time < 24 hrs, dose 13 mg/kg, route ip; conditions: in vivo
[11] = Acute toxicity in C57BL/6 mouse assessed as maximum tolerated dose administered intravenously for 5 consecutive days; conditions: in vivo, route iv
[12] = MRT (0 to infinity) in CD-1 mouse at 13 mg/kg,ip measured upto 24 hrs by HPLC-MS/MS analysis; assay type: ADME, organism-based; conditions: in vivo
A549 [13] = experiment: Antitumor activity against human A549 cells xenografted in Balb/c mouse assessed as reduction in tumor weight at 50 mg/kg,ip administration measured after 31 days; assay type: functional; parameters: scale not given: the % may be the effect or the level left; conditions: time 31 day
[14] = AUC (0 to t) in CD-1 mouse at 13 mg/kg,ip measured upto 24 hrs by HPLC-MS/MS analysis; assay type: ADME, organism-based; parameters: time < 24 hrs, dose 13 mg/kg, route ip; conditions: in vivo
[15] = Toxicity in Balb/c mouse xenografted with human A549 cells assessed as change in body weight at 50 mg/kg,ip administration measured after 31 days; assay type: organism-based; conditions: in vivo, 744 h, time 31 day

T1 sequence (O60674 whole entry): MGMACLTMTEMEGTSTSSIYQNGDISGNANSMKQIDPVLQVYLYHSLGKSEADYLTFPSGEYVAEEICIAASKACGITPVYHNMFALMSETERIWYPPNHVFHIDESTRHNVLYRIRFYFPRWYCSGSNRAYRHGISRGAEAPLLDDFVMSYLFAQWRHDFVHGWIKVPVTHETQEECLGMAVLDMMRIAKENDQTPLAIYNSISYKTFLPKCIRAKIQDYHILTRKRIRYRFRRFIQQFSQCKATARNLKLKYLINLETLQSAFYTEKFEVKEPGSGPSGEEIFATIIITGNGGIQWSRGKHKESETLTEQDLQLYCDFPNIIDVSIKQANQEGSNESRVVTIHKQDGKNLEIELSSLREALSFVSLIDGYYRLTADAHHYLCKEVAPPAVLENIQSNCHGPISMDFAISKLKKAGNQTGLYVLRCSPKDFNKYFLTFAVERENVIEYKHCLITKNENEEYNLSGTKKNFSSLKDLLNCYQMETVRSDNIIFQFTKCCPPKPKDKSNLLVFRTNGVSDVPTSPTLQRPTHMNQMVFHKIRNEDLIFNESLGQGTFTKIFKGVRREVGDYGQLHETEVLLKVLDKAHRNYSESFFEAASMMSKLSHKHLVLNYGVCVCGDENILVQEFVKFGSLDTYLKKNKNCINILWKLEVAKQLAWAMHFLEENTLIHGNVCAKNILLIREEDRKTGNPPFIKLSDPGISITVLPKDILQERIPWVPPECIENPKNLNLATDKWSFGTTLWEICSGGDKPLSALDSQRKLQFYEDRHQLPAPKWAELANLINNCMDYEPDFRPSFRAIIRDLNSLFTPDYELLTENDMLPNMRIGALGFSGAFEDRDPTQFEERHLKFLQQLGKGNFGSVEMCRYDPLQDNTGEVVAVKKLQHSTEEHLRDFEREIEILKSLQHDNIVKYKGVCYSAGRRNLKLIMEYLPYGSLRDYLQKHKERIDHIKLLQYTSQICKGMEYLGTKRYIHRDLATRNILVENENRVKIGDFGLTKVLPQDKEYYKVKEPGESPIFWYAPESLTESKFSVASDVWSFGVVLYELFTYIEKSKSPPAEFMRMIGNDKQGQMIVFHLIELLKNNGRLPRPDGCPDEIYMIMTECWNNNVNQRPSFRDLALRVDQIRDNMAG

Structure (SMILES) | IC50 (BXPC-3) [nM] | IC50 (KP-4) [nM] | IC50 (MCF7) [nM] | IC50 (A549 [1]) [nM] | IC50 (HeLa) [nM] | inhibition [2] [%] | also measured
COc1cc(-c2cncc3nc(Nc4cccc5c4ccn5C)nn23)cc(OC)c1OC | 38 | 106 | 25 | 7150 | 59 | – | –
COc1cc(-c2nccc3nc(Nc4ccc5ccn(C)c5c4)nn23)cc(OC)c1OC | 630 | 7160 | 280 | > 10000 | 2170 | 26 | –
COc1cc(-c2ccnc3nc(Nc4cccc5[nH]ccc45)nn23)cc(OC)c1OC | 23 | 70 | 35 | 85 | 166 | – | –
COc1cc(-c2nccc3nc(Nc4ccc5c6ccccc6n(C)c5c4)nn23)cc(OC)c1OC | > 10000 | > 10000 | > 10000 | > 10000 | > 10000 | – | –
COc1cc(-c2nccc3nc(Nc4ccc5c(ccn5C)c4)nn23)cc(OC)c1OC | 40 | 938 | 64 | 92 | 202 | 77 | IC50 [3]: 544 nM; IC50 (Tubulin): 15300 nM
COc1cc(-c2nccc3nc(Nc4cccc5c4ccn5C)nn23)cc(OC)c1OC | 16 | 40 | 46 | 13 | 29 | 56 | IC50 [3]: 705 nM; IC50 (Tubulin): 1600 nM
COc1cc(-c2nccc3nc(Nc4ccc5c(c4)[nH]c4ccccc45)nn23)cc(OC)c1OC | > 10000 | > 10000 | > 10000 | > 10000 | > 10000 | – | –
COc1cc(-c2ccnc3nc(Nc4cccc5c4ccn5C)nn23)cc(OC)c1OC | 18 | 36 | 26 | 13 | 80 | – | –
COc1ccc(Nc2nc3ccnc(-c4cc(OC)c(OC)c(OC)c4)n3n2)cc1O | 205 | 3150 | 363 | 502 | 1060 | 46 | –
COc1cc(-c2nccc3nc(Nc4cccc5[nH]c6ccccc6c45)nn23)cc(OC)c1OC | > 10000 | > 10000 | > 10000 | > 10000 | > 10000 | – | –
COc1cc(-c2nccc3nc(Nc4cccc5c4ccn5P(=O)([O-])[O-])nn23)cc(OC)c1OC.[Na+].[Na+] | 9 | 42 | 48 | 12 | 11 | – | MRT last at 24 h [4]: 1.8 h; Activity (A549 [5]): Active; AUC(0-inf) [6]: 908 ng·h/mL; Activity (A549 [7]): 204.6 mm3; half-life [8]: 1.8 h; Tmax [9]: 6 min; Cmax [10]: 334 ng/mL; MTD at 5 days [11]: 100 mg/kg; MRT inf [12]: 2.4 h; Activity (A549 [13]): 91%; AUC(0-t) at 24 h [14]: 850 ng·h/mL; Activity [15]: Non-Toxic
COc1cc(-c2cccc3nc(Nc4cccc5[nH]ccc45)nn23)cc(OC)c1OC | 29 | 259 | 72 | 64 | 247 | – | –
COc1cc(-c2nccc3nc(Nc4ccc5c(c4)c4ccccc4n5C)nn23)cc(OC)c1OC | > 10000 | 2120 | > 10000 | 996 | > 10000 | – | –
